The record followed here is US7928238B2, “1,2,3,4-tetrahydro-quinoline derivatives as CETP inhibitors” (Janssen Pharmaceutica NV, priority 2006, dated 2011).

The target of this test is T1, CETP (Homo sapiens, UniProt P11597).
T1 construct: from tissue; host or cells: human plasma from normal volunteers
T1 sequence (P11597 18-493): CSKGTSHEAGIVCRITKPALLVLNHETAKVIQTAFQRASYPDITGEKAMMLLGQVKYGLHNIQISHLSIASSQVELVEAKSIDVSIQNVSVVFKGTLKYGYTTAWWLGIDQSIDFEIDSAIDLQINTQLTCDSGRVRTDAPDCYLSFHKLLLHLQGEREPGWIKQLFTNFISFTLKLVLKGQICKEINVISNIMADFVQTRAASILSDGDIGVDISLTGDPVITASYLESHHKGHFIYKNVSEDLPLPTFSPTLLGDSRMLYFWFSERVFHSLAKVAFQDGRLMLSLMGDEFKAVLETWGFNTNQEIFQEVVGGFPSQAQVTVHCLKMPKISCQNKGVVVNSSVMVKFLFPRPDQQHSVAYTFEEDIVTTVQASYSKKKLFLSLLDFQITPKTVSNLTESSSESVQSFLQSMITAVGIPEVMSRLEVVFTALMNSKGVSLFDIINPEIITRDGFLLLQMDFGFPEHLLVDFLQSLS
Briefly: CETP in vitro assay (Amersham kit TRKQ7005; modified protocol in human plasma, [3H]CE-HDL transfer). The test is classed as biochemical. As to conditions: for % Inhibition @ 1 μM / inhibition at 1 µM: 1 μM compound; for IC50: from plots of % control versus compound concentration; for inhibition at 1 µM: read-out: % Inhibition @ 1 μM. As to the method: The CETP inhibitory activity of the compounds was determined using a commercially available kit from Amersham Biosciences (Catalog #TRKQ7005).
Briefly, 80 μl of human plasma (obtained from normal volunteers), approximately 25 μg/ml (20 μl) of [^3H]CE-HDL (Amersham Biosciences from kit TRKQ7005) and 1 μl of compound dissolved in DMSO was incubated for at least 4 hrs at 37° C. and non-specific transfer was determined by incubating a corresponding plate at 4° C. (blank). After the incubation period, 10 μl of a solution of 1% Dextralip 50/0.5M MgCl2, pH 7.4 was added, vortexed and incubated at room temperature for 10 min. The plate was then centrifuged for 30 min at 10° C. at 300 rpm in a Sorvall RT6000B centrifuge. Fifty microliters of the supernatant was transferred to a Picoplate (Packard) containing 100 μl of Microscint 40 (Perkin Elmer) and mixed for 30 min using a plate mixer. The radioactivity was counted using a TopCount (Perkin Elmer) and the % control was determined in the samples using the following formula: % transfer relative to vehicle controls (% control)=[cpm blank−cpm test]/cpm blank/cpm control]×100. IC50s were calculated from plots of the % control versus compound concentration.

Values joined by “and” are separate entries in the source; they are usually repeats but may differ in a detail not shown here. Identical values can stand only once.

On to `OC(CN1c2cccc(-c3ccc(C(F)(F)F)cc3)c2CCC1c1cccc(OC(F)(F)C(F)F)c1)C(F)(F)F` (stereo not shown) [Compound 3, 1,1,1-Trifluoro-3-[2-[3-(1,1,2,2-tetrafluoro-ethoxy)-phenyl]-5-(4-trifluoromethyl-phenyl)-3,4-dihydro-2H-quinolin-1-yl]-propan-2-ol], for which the “% Inhibition @ 1 μM” value was determined as 85% and the IC50 – broadly, the concentration that inhibits the measured activity by half – was 500 nM. Turning to `COc1cccc(-c2cccc3c2CC[C@@H](c2cccc(OC(F)(F)F)c2)N3C[C@@H](C)O)c1` [Compound 60], the inhibition (commonly the drop in the measured response relative to a control, in per cent) at 1 µM worked out at 5%. Consider `OC(CN1c2cccc(-c3cccc(C(F)(F)F)c3)c2CCC1c1cccc(OC(F)(F)C(F)F)c1)C(F)(F)F` (stereo not shown) [Compound 13], for which the “% Inhibition @ 1 μM” value is 98% and 87%; the IC50 came out at 96 nM. For `Cc1cc(-c2cccc3c2CCC(c2cccc(OC(F)(F)C(F)F)c2)N3CC(O)C(F)(F)F)ccc1Cl` (stereo not shown) [Compound 5, 3-{5-(4-Chloro-3-methyl-phenyl)-2-[3-(1,1,2,2-tetrafluoro-ethoxy)-phenyl]-3,4-dihydro-2H-quinolin-1-yl}-1,1,1-trifluoro-propan-2-ol], the “% Inhibition @ 1 μM” value is 96%; the IC50 was 260 nM and 381 nM. For the compound `O[C@@H](CN1c2cccc(-c3cccc(OC(F)(F)F)c3)c2CC[C@H]1c1cccc(OC(F)(F)C(F)F)c1)C(F)(F)F` [Compound 80, (2S, αS)-3,4-Dihydro-2-[3-(1,1,2,2-tetrafluoroethoxy)phenyl]-5-[3-(trifluoromethoxy)phenyl]-α-(trifluoromethyl)-1(2H)-quinolineethanol], the inhibition at 1 µM was found to be 20%. Take `CCc1cc(Oc2cccc3c2CCC(c2cccc(OC(F)(F)C(F)F)c2)N3CC(O)C(F)(F)F)ccc1Cl` (stereo not shown) [Compound 85, 3-{5-(4-Chloro-3-ethyl-phenoxy)-2-[3-(1,1,2,2-tetrafluro-ethoxy)-phenyl]-3,4-dihydro-2H-quinolin-1-yl}-1,1,1-trifluoro-propan-2-ol]: the “% Inhibition @ 1 μM” value came to 86% and the IC50 amounted to 400 nM. As to `C[C@@H](O)CN1c2cccc(-c3cccc(F)c3)c2CC[C@H]1c1cccc(OC(F)(F)F)c1` [Compound 56], the inhibition at 1 µM came out at 0%. For the compound `OC(CN1c2cccc(-c3cccs3)c2CCC1c1cccc(OC(F)(F)C(F)F)c1)C(F)(F)F` (stereo not shown) [Compound 74, 1,1,1-Trifluoro-3-{2-[3-(1,1,2,2-tetrafluoro-ethoxy)-phenyl]-5-thiophen-2-yl-3,4-dihydro-2H-quinolin-1-yl}-propan-2-ol], the “% Inhibition @ 1 μM” value was 60% and 66%; the IC50 is 380 nM and 255 nM.

Consider `OC(CN1c2cccc(-c3cccc(OC(F)(F)F)c3)c2CCC1c1ccccc1)C(F)(F)F` (stereo not shown) [Compound 19, 1,1,1-Trifluoro-3-[2-phenyl-5-(3-trifluoromethoxy-phenyl)-3,4-dihydro-2H-quinolin-1-yl]-propan-2-ol], for which the “% Inhibition @ 1 μM” value was 21%. In the case of `CCc1cc(Oc2cccc3c2CCC(c2cccc(OC(F)(F)C(F)F)c2)N3CC(O)C(F)(F)F)ccc1Cl` (stereo not shown) [Compound 84, 3-{5-(4-Chloro-3-ethyl-phenoxy)-2-[3-(1,1,2,2-tetrafluro-ethoxy)-phenyl]-3,4-dihydro-2H-quinolin-1-yl}-1,1,1-trifluoro-propan-2-ol], the “% Inhibition @ 1 μM” value was 62% and the IC50 came to 600 nM.

For `O=Cc1cccc(-c2cccc3c2CCC(c2cccc(OC(F)(F)C(F)F)c2)N3CC(O)C(F)(F)F)c1` (stereo not shown) [Compound 63, 3-[2-[3-(1,1,2,2-Tetrafluoro-ethoxy)-phenyl]-1-(3,3,3-trifluoro-2-hydroxy-propyl)-1,2,3,4-tetrahydro-quinolin-5-yl]-benzaldehyde], the inhibition at 1 µM is 39%. Consider `OC(CN1c2cccc(-c3ccsc3)c2CCC1c1cccc(OC(F)(F)C(F)F)c1)C(F)(F)F` (stereo not shown) [Compound 65, 1,1,1-Trifluoro-3-{2-[3-(1,1,2,2-tetrafluoro-ethoxy)-phenyl]-5-thiophen-3-yl-3,4-dihydro-2H-quinolin-1-yl}-propan-2-ol], for which the “% Inhibition @ 1 μM” value worked out at 16%. The same measure, in the same setting: in the case of `COc1cccc(-c2cccc3c2CCC(c2cccc(OC(F)(F)C(F)F)c2)N3CC(O)C(F)(F)F)c1` (stereo not shown) [Compound 73, 1,1,1-Trifluoro-3-{5-(3-methoxy-phenyl)-2-[3-(1,1,2,2-tetrafluoro-ethoxy)-phenyl]-3,4-dihydro-2H-quinolin-1-yl}-propan-2-ol] it was 50% and 26%. For `COc1cccc(-c2cccc3c2CC[C@H](c2cccc(OC(F)(F)F)c2)N3C[C@H](O)C(F)(F)F)c1` [Compound 59], the inhibition at 1 µM was determined as 30%. Consider `N#Cc1cccc(C2CCc3c(-c4cccc(OC(F)(F)F)c4)cccc3N2CC(O)C(F)(F)F)c1` (stereo not shown) [Compound 27, 3-[1-(3,3,3-Trifluoro-2-hydroxy-propyl)-5-(3-trifluoromethoxy-phenyl)-1,2,3,4-tetrahydro-quinolin-2-yl]-benzonitrile], for which the “% Inhibition @ 1 μM” value was 48% and 38%; the IC50 worked out at 410 nM. For `OC(CN1c2cccc(-c3cccc(OC(F)(F)F)c3)c2CCC1c1cccc(OC(F)(F)F)c1)C(F)(F)F` (stereo not shown) [Compound 32, 3-[2,5-Bis-(3-trifluoromethoxy-phenyl)-3,4-dihydro-2H-quinolin-1-yl]-1,1,1-trifluoro-propan-2-ol], the “% Inhibition @ 1 μM” value was 34%. Still for that read-out and setting: the value for `OC(CN1c2cccc(-c3cccc(OC(F)(F)F)c3)c2CCC1c1ccc(OC(F)(F)C(F)F)cc1)C(F)(F)F` (stereo not shown) [Compound 22, 1,1,1-Trifluoro-3-[2-[4-(1,1,2,2-tetrafluoro-ethoxy)-phenyl]-5-(3-trifluoromethoxy-phenyl)-3,4-dihydro-2H-quinolin-1-yl]-propan-2-ol] was 14%. For the compound `OC(CN1c2cccc(-c3cccc(OC(F)(F)F)c3)c2CCC1c1cccc(OC(F)(F)F)c1)C(F)(F)F` (stereo not shown) [Compound 31, 3-[2,5-Bis-(3-trifluoromethoxy-phenyl)-3,4-dihydro-2H-quinolin-1-yl]-1,1,1-trifluoro-propan-2-ol], the “% Inhibition @ 1 μM” value was 77% and 72% and 67% and 66% and 62%; the IC50 is 150 nM and 100 nM. `OC(CN1c2cccc(-c3cccc(F)c3)c2CCC1c1cccc(OC(F)(F)F)c1)C(F)(F)F` (stereo not shown) [Compound 58, 1,1,1-Trifluoro-3-[5-(3-fluoro-phenyl)-2-(3-trifluoromethoxy-phenyl)-3,4-dihydro-2H-quinolin-1-yl]-propan-2-ol]: the “% Inhibition @ 1 μM” value was determined as 40%. On to `OC(CN1c2cccc(-c3ccsc3)c2CCC1c1cccc(OC(F)(F)C(F)F)c1)C(F)(F)F` (stereo not shown) [Compound 64, 1,1,1-Trifluoro-3-{2-[3-(1,1,2,2-tetrafluoro-ethoxy)-phenyl]-5-thiophen-3-yl-3,4-dihydro-2H-quinolin-1-yl}-propan-2-ol], for which the “% Inhibition @ 1 μM” value is 61% and 70% and 78%; the IC50 stood at 300 nM.

In the case of `OC(CCl)CN1c2cccc(-c3cccc(OC(F)(F)F)c3)c2CCC1c1cccc(OC(F)(F)F)c1` (stereo not shown) [Compound 47, 1-[2,5-Bis-(3-trifluoromethoxy-phenyl)-3,4-dihydro-2H-quinolin-1-yl]-3-chloro-propan-2-ol], the “% Inhibition @ 1 μM” value was 68% and 44%; half-maximal inhibition (IC50) was put at 744 nM. With `CC(C)Oc1cccc(-c2cccc3c2CCC(c2cccc(OC(F)(F)C(F)F)c2)N3CC(O)C(F)(F)F)c1` (stereo not shown) [Compound 68, 1,1,1-Trifluoro-3-{5-(3-isopropoxy-phenyl)-2-[3-(1,1,2,2-tetrafluoro-ethoxy)-phenyl]-3,4-dihydro-2H-quinolin-1-yl}-propan-2-ol], the “% Inhibition @ 1 μM” value is 49% and 61%; the IC50 worked out at 345 nM. For the compound `OC(CN1c2cccc(-c3cccc(OC(F)(F)F)c3)c2CCC1c1ccccc1OC(F)(F)C(F)F)C(F)(F)F` (stereo not shown) [Compound 89, 1,1,1-Trifluoro-3-[2-[2-(1,1,2,2-tetrafluoro-ethoxy)-phenyl]-5-(3-trifluoromethoxy-phenyl)-3,4-dihydro-2H-quinolin-1-yl]-propan-2-ol], the “% Inhibition @ 1 μM” value was found to be 9%. On the same count and under the same terms, in the case of `OC(CN1c2cccc(-c3cccc(OC(F)(F)F)c3)c2CCC1c1ccccc1OC(F)(F)C(F)F)C(F)(F)F` (stereo not shown) [Compound 90, 1,1,1-Trifluoro-3-[2-[2-(1,1,2,2-tetrafluoro-ethoxy)-phenyl]-5-(3-trifluoromethoxy-phenyl)-3,4-dihydro-2H-quinolin-1-yl]-propan-2-ol] it was 0%; in that of `OC(CN1c2cccc(-c3cccc(OC(F)(F)F)c3)c2CCC1c1cccs1)C(F)(F)F` (stereo not shown) [Compound 33, 1,1,1-Trifluoro-3-[2-thiophen-2-yl-5-(3-trifluoromethoxy-phenyl)-3,4-dihydro-2H-quinolin-1-yl]-propan-2-ol], 28%.

With `C[C@H](O)CN1c2cccc(-c3cccc(OC(F)(F)F)c3)c2CC[C@H]1c1cccc(OC(F)(F)C(F)F)c1` [Compound 62], the inhibition at 1 µM came out at 30%.
